This note sets out measurements from ChEMBL document CHEMBL1201862, “PubChem BioAssay data set” (2004).

Common to all, as to experiment: NCI anticancer screen, dose series, 48 h
Assay [1] relates to HCT-116.
Assay [2] relates to NCI-H226.
The test system of assay [3] is M14.
In assay [4] the test system is RPMI-8226.
Assay [5] concerns MOLT-4.
In assay [6] the test system is CCRF-CEM.
Assay [7] deals with Hs-578T.
Assay [8] has as its system MDA-MB-231.
For assay [9], the system named is COLO 205.
The subject of assay [10] is MDA-N.
Assay [11] has as its system SF-268.
Assay [12] deals with BT-549.
Assay [13] deals with SF-295.
In assay [14] the test system is HCC 2998.
For assay [15], the system named is A498.
The subject of assay [16] is SR.

SMILES strings stand for the structures.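 Each compound was tested at five concentrations against cells in 96-well plates for 48 hours. The concentration for 50% growth inhibition is given as GI50.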 Calls of active or inactive are those of the source. Rule as the data show it: active = GI50 up to about 1.1 µM and inactive = higher.

`[N-]=[N+]=NC[C@H]1OCO[C@H](CN=[N+]=[N-])[C@H]2OCCOCCOc3ccccc3OCCOCCO[C@@H]21`: the GI50 in assay [1], in assay [2], in assay [3], in assay [4], in assay [5] and in assay [6] was > 100 µM (inactive) in each case. In addition, the GI50 in [7], in [8], in assay [9], in assay [10], in assay [11] and in assay [12] was > 100 µM (inactive) throughout. Also, the GI50 in assay [13] and in [14] was > 100 µM (inactive) in each case.
`Cc1nc2nnc(CCCCCCCCc3nnc4nc(C)[nH]n34)n2[nH]1`: the GI50 in assay [1], in [2], in [3], in assay [5], in assay [6] and in assay [15] was > 100 µM (inactive) in each case. Also, the GI50 in assay [8], in assay [9], in assay [10], in assay [11], in assay [12] and in assay [13] was > 100 µM (inactive) in each case. In addition, in assay [14], the GI50 was > 100 µM (inactive).
For `Cc1cccc(-c2cc(=S)c3cc(N4CCCC4)ccc3[nH]2)c1`, the GI50 in assay [1], in assay [2], in assay [3], in assay [4], in assay [5] and in assay [6] was > 100 µM (inactive) in each case. The GI50 in assay [15], in assay [7], in assay [8], in assay [9], in assay [10] and in [11] was > 100 µM (inactive) in each case. The GI50 in assay [13] and in assay [14] was > 100 µM (inactive) throughout.
Turning to `C[O+]=C1C=CC(=C2SC(c3ccccc3)(c3ccccc3)c3ccccc32)C=C1.[O-][Cl+3]([O-])([O-])[O-]`, the GI50 was 10.3 µM (inactive) in assay [1]; 14.5 µM (inactive) in assay [2]; 16.1 µM (inactive) in assay [3]; 17.5 µM (inactive) in assay [4]; 13.1 µM (inactive) in [5]; 26.4 µM (inactive) in assay [6]. Moreover, the GI50 was 24 µM (inactive) in assay [15]; 18.6 µM (inactive) in assay [7]; 18.5 µM (inactive) in assay [8]; 17.3 µM (inactive) in [9]; 21.1 µM (inactive) in [10]; 29 µM (inactive) in [11]. Moreover, the GI50 in assay [12] is 24.7 µM (inactive); in assay [13] it was 22.1 µM (inactive); in assay [14], 26.5 µM (inactive).
For `Cc1cc(O)cc(O)c1/N=N/c1ccc([N+](=O)[O-])cc1`, the GI50 is 3.51 µM (inactive) in assay [1]; 22.5 µM (inactive) in [3]; 5.22 µM (inactive) in assay [4]; 5.3 µM (inactive) in [5]; 5.69 µM (inactive) in assay [6]; 18.4 µM (inactive) in assay [15]. Also, the GI50 in [7] is 27.5 µM (inactive); in [8] it was 14.8 µM (inactive); in assay [9], 30.5 µM (inactive); in assay [10], 15.6 µM (inactive); in [11] it was 9.86 µM (inactive); in [12], 15 µM (inactive). The GI50 was > 100 µM (inactive) in assay [13] and 10.4 µM (inactive) in assay [14].
Take `CCC1CN(C(=O)c2ccccc2)C(Cc2c[nH]c3ccccc23)C(=O)C1CC(=O)OC` (stereo not given): the GI50 in [2] is > 100 µM (inactive); in assay [3] it was 58.6 µM (inactive); in assay [5], 27.7 µM (inactive); in assay [6] it was 51.4 µM (inactive); in assay [15], 1.09 µM (active); in assay [7], 51.8 µM (inactive). In addition, the GI50 is > 100 µM (inactive) in assay [9]; > 100 µM (inactive) in [11]; > 100 µM (inactive) in assay [12]; 36.6 µM (inactive) in assay [16]; > 100 µM (inactive) in [13].
For the molecule `COc1ccc2c(c1)C(=O)CC1c3cnccc3C(=O)N21` (stereo not given), the GI50 in assay [1] was > 73.6 µM (inactive); in assay [2], > 100 µM (inactive); in assay [3], > 100 µM (inactive); in [4] it was > 92 µM (inactive); in assay [5] it was > 100 µM (inactive); in assay [15], > 100 µM (inactive). For the same molecule, the GI50 in assay [8] is > 100 µM (inactive); in assay [9], > 100 µM (inactive); in assay [10], > 100 µM (inactive); in assay [11], > 100 µM (inactive); in assay [12], > 100 µM (inactive); in [16], > 85.5 µM (inactive). Moreover, the GI50 in [13] is > 100 µM (inactive); in assay [14], > 86.1 µM (inactive).
In the case of `Cn1c2ccccc2n2c(=O)c(-c3ccc(O)cc3)nnc12`, the GI50 is > 100 µM (inactive) in assay [1]; 46.6 µM (inactive) in [2]; > 100 µM (inactive) in assay [3]; > 100 µM (inactive) in assay [5]; > 100 µM (inactive) in assay [6]; > 100 µM (inactive) in [15]. The GI50 in [7] is 34.8 µM (inactive); in assay [8] it was 31.2 µM (inactive); in assay [9], > 100 µM (inactive); in assay [11], 64.7 µM (inactive); in [12] it was 56 µM (inactive); in assay [16], > 100 µM (inactive). The values for the GI50 in assay [13] and in assay [14] were 18.3 µM (inactive) and > 100 µM (inactive), respectively.
In the case of `C1CN(c2nc3c(nnc4nc(N5CCOCC5)sc43)s2)CCO1`, the GI50 is > 100 µM (inactive) in [1]; 84.7 µM (inactive) in assay [2]; > 100 µM (inactive) in assay [3]; > 100 µM (inactive) in assay [4]; 58.7 µM (inactive) in assay [5]; 52.8 µM (inactive) in assay [6]. The GI50 in assay [15] is > 100 µM (inactive); in [7], 53.6 µM (inactive); in assay [8] it was > 100 µM (inactive); in assay [9], > 100 µM (inactive); in assay [10], > 100 µM (inactive); in assay [11], 49.7 µM (inactive). In addition, the GI50 in [12] and in assay [13] was > 100 µM (inactive) throughout.
Take `NNC(=O)c1c(SCc2ccccc2)nc2c3ccccc3ccn12`: the GI50 is 22.1 µM (inactive) in assay [2]; 14.5 µM (inactive) in [3]; 10.9 µM (inactive) in assay [5]; 2.92 µM (inactive) in [6]; 11.6 µM (inactive) in [15]; 80.4 µM (inactive) in [7]. Moreover, the GI50 in [8] was 29.4 µM (inactive); in assay [9], 23.9 µM (inactive); in assay [11] it was 20.3 µM (inactive); in [12], 21.4 µM (inactive); in assay [13] it was 21.9 µM (inactive); in assay [14], 46.8 µM (inactive).
With `NC(CCCCNC(=O)C(Cc1ccccc1)NC(=O)OCc1ccccc1)C(=O)NC(CCCCNC(=O)C(Cc1ccccc1)NC(=O)OCc1ccccc1)C(=O)NC(CCCCNC(=O)C(Cc1ccccc1)NC(=O)OCc1ccccc1)C(=O)NC(CCCCNC(=O)C(Cc1ccccc1)NC(=O)OCc1ccccc1)C(=O)NC(CCCCNC(=O)C(Cc1ccccc1)NC(=O)OCc1ccccc1)C(=O)NC(CCCCNC(=O)C(Cc1ccccc1)NC(=O)OCc1ccccc1)C(=O)O` (stereo not given), the GI50 in assay [1], in assay [2], in [3], in assay [4], in assay [5] and in assay [6] was > 100 µM (inactive) throughout. The GI50 in [8], in assay [10], in assay [11], in assay [12], in [16] and in assay [14] was > 100 µM (inactive) in each case.
Regarding `COc1cc2c3c(cc(Cl)nc3c1OC)C(=O)C(=O)N2`, the GI50 in [1] is 4.33 µM (inactive); in assay [2] it was 21.1 µM (inactive); in [3], 15.6 µM (inactive); in assay [4], 2.68 µM (inactive); in assay [5], 2.34 µM (inactive); in assay [6], 1.69 µM (inactive). In addition, the GI50 was 16.6 µM (inactive) in [15]; 30.4 µM (inactive) in [7]; 1.94 µM (inactive) in [8]; 21.9 µM (inactive) in [9]; 17.4 µM (inactive) in assay [11]; 16.2 µM (inactive) in [12]. In addition, the GI50 in assay [16] is 3.26 µM (inactive); in assay [13], 18.6 µM (inactive); in assay [14] it was 18.2 µM (inactive).
As for `Cn1c2ccccc2n2c(=O)c3cc([N+](=O)[O-])ccc3c(C#N)c12`, the GI50 in [1], in assay [2], in [3], in assay [4], in [5] and in assay [6] was > 100 µM (inactive) throughout. The GI50 in assay [7], in [9], in assay [10], in [11], in assay [12] and in assay [16] was > 100 µM (inactive) in each case. In addition, the GI50 in [13] is 83.2 µM (inactive); in assay [14], > 100 µM (inactive).
Take `CCOC(=O)CC[C@H](NC(=O)N[C@H](C)c1ccccc1)C(=O)OCC`: the GI50 is > 100 µM (inactive) in assay [1]; > 100 µM (inactive) in assay [2]; 14.8 µM (inactive) in assay [3]; 41 µM (inactive) in assay [4]; 20.1 µM (inactive) in [5]; 22.6 µM (inactive) in assay [6]. The GI50 is > 100 µM (inactive) in assay [15]; 28.6 µM (inactive) in assay [8]; 18.7 µM (inactive) in assay [9]; 18.6 µM (inactive) in assay [10]; > 100 µM (inactive) in assay [12]; 84.9 µM (inactive) in [16]. The figures for the GI50 in [13] and in assay [14] were > 100 µM (inactive) and 25.9 µM (inactive), respectively.
